# According to patent US12465627B2, “Immunity-boosting agent, immuno-therapeutic anti-cancer agent, and anti-cancer therapy adverse effect mitigating agent containing anthocyanin-fucoidan complex as active ingredient” (JBKLAB CO., LTD., priority 2017, dated 2025):
# What was measured:
# [1] = system: SK-BR-3 (human breast cancer) transplanted tumor; assay: Combined administration with doxorubicin in SK-BR-3 transplanted mice; assay type: in vivo, Balb/c mice; details: after second intravenous administration of doxorubicin
# [2] = system: CD8 T cells and NK cells in blood; assay: Immune cell activity and weight recovery in doxorubicin-treated mice; assay type: in vivo, Balb/c mice; details: DOX 10 mg/kg on day 1 and 5; oral administration for 14 days; flow cytometry
# [3] = mouse, in vivo
BASO [3],EOS [3],HCT [3],HGB [3],LYM [3],MCHC [3],MONO [3],NEUT [3],PLT [3],RBC [3],WBC [3],Molecule,body weight change [1],immune cells (CD8 T cell and NK cell) in blood [2]
3.2%,3%,52.6%,16.5 g/dL,53.7%,15 g/dL,4.3%,33.9%,1954 ×10^3 cells/μL,10.99 ×10^6 cells/μL,6.57 ×10^3 cells/μL,"COc1cccc2c1C(=O)c1c(O)c3c(c(O)c1C2=O)C[C@@](O)(C(=O)CO)C[C@@H]3O[C@H]1C[C@H](N)[C@H](O)[C@H](C)O1 [DOX, doxorubicin]",rapid decrease in body weight,immune cells decreased
1.5%,6.1%,39.8%,10.9 g/dL,14.3%,12 g/dL,4.6%,67.9%,1242 ×10^3 cells/μL,9.14 ×10^6 cells/μL,18.41 ×10^3 cells/μL,fucoidan,,
